Experimental data reported in PubChem BioAssay (NCI).
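Each compound was tested at five concentrations against cells in 96-well plates for 48 hours. TGI: concentration producing complete growth inhibition.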

Columns and labels:
Test in all cases: NCI-60 cell line screen, 48 h
786-0 renal = test system: 786-0 renal
A498 renal = test system: A498 renal
ACHN renal = test system: ACHN renal
BT-549 breast = test system: BT-549 breast
CAKI-1 renal = test system: CAKI-1 renal
CCRF-CEM leukemia = test system: CCRF-CEM leukemia
COLO 205 colon = test system: COLO 205 colon
DU-145 prostate = test system: DU-145 prostate
EKVX NSCLC = test system: EKVX NSCLC
HCC-2998 colon = test system: HCC-2998 colon
HCT-116 colon = test system: HCT-116 colon
HCT-15 colon = test system: HCT-15 colon
HL-60(TB) leukemia = test system: HL-60(TB) leukemia
HOP-62 NSCLC = test system: HOP-62 NSCLC
HOP-92 NSCLC = test system: HOP-92 NSCLC
HS 578T breast = test system: HS 578T breast
HT29 colon = test system: HT29 colon
IGROV1 ovarian = test system: IGROV1 ovarian
K-562 leukemia = test system: K-562 leukemia
KM12 colon = test system: KM12 colon
LOX IMVI melanoma = test system: LOX IMVI melanoma
M14 melanoma = test system: M14 melanoma
MALME-3M melanoma = test system: MALME-3M melanoma
MCF7 breast = test system: MCF7 breast
MDA-MB-231 breast = test system: MDA-MB-231 breast
MDA-MB-435 = test system: MDA-MB-435
MDA-N = test system: MDA-N
MOLT-4 leukemia = test system: MOLT-4 leukemia
NCI-H226 lung = test system: NCI-H226 lung
NCI-H23 lung = test system: NCI-H23 lung
NCI-H460 lung = test system: NCI-H460 lung
NCI/ADR-RES ovarian = test system: NCI/ADR-RES ovarian
OVCAR-3 ovarian = test system: OVCAR-3 ovarian
OVCAR-4 ovarian = test system: OVCAR-4 ovarian
OVCAR-5 ovarian = test system: OVCAR-5 ovarian
OVCAR-8 ovarian = test system: OVCAR-8 ovarian
PC-3 prostate = test system: PC-3 prostate
RPMI-8226 leukemia = test system: RPMI-8226 leukemia
RXF 393 renal = test system: RXF 393 renal
SF-268 CNS = test system: SF-268 CNS
SF-295 CNS = test system: SF-295 CNS
SF-539 CNS = test system: SF-539 CNS
SK-MEL-2 melanoma = test system: SK-MEL-2 melanoma
SK-MEL-28 melanoma = test system: SK-MEL-28 melanoma
SK-OV-3 ovarian = test system: SK-OV-3 ovarian
SN12C renal = test system: SN12C renal
SNB-19 CNS = test system: SNB-19 CNS
SNB-75 CNS = test system: SNB-75 CNS
SR leukemia = test system: SR leukemia
SW-620 colon = test system: SW-620 colon
T-47D breast = test system: T-47D breast
TK-10 renal = test system: TK-10 renal
U251 CNS = test system: U251 CNS
UACC-257 melanoma = test system: UACC-257 melanoma
UACC-62 melanoma = test system: UACC-62 melanoma
UO-31 renal = test system: UO-31 renal
A549 NSCLC = test system: A549 NSCLC
NCI-H522 lung = test system: NCI-H522 lung
SK-MEL-5 melanoma = test system: SK-MEL-5 melanoma

For COc1ccc2c(c1)C(N)=C(c1ccccc1OC)C2=O, the TGI (786-0 renal) was > 100 µM, the TGI (A498 renal) was > 100 µM and the TGI (ACHN renal) was > 100 µM. The TGI (BT-549 breast) was > 100 µM, the TGI (CAKI-1 renal) was > 100 µM and the TGI (CCRF-CEM leukemia) was > 100 µM. The TGI (COLO 205 colon) was > 100 µM, the TGI (DU-145 prostate) was > 100 µM and the TGI (EKVX NSCLC) was > 100 µM. For the same compound, the TGI (HCC-2998 colon) was > 100 µM, the TGI (HCT-116 colon) was > 100 µM and the TGI (HCT-15 colon) was > 100 µM. For the same compound, the TGI (HL-60(TB) leukemia) was > 100 µM, the TGI (HOP-62 NSCLC) was > 100 µM and the TGI (HOP-92 NSCLC) was > 100 µM. For the same compound, the TGI (HS 578T breast) was > 100 µM, the TGI (HT29 colon) was > 100 µM and the TGI (IGROV1 ovarian) was > 100 µM. For the same compound, the TGI (K-562 leukemia) was > 100 µM, the TGI (KM12 colon) was > 100 µM and the TGI (LOX IMVI melanoma) was > 100 µM. For the same compound, the TGI (M14 melanoma) was > 100 µM, the TGI (MALME-3M melanoma) was > 100 µM and the TGI (MCF7 breast) was > 100 µM. For the same compound, the TGI (MDA-MB-231 breast) was > 100 µM, the TGI (MDA-MB-435) was > 100 µM and the TGI (MDA-N) was > 100 µM. For the same compound, the TGI (MOLT-4 leukemia) was > 100 µM, the TGI (NCI-H226 lung) was > 100 µM and the TGI (NCI-H23 lung) was > 100 µM. For the same compound, the TGI (NCI-H460 lung) was > 100 µM, the TGI (NCI/ADR-RES ovarian) was > 100 µM and the TGI (OVCAR-3 ovarian) was > 100 µM. The TGI (OVCAR-4 ovarian) was > 100 µM, the TGI (OVCAR-5 ovarian) was > 100 µM and the TGI (OVCAR-8 ovarian) was > 100 µM. For the same compound, the TGI (PC-3 prostate) was > 100 µM, the TGI (RPMI-8226 leukemia) was > 100 µM and the TGI (RXF 393 renal) was > 100 µM. The TGI (SF-268 CNS) was > 100 µM, the TGI (SF-295 CNS) was > 100 µM and the TGI (SF-539 CNS) was > 100 µM. The TGI (SK-MEL-2 melanoma) was > 100 µM, the TGI (SK-MEL-28 melanoma) was > 100 µM and the TGI (SK-OV-3 ovarian) was > 100 µM. The TGI (SN12C renal) was > 100 µM, the TGI (SNB-19 CNS) was > 100 µM and the TGI (SNB-75 CNS) was > 100 µM. The TGI (SR leukemia) was > 100 µM, the TGI (SW-620 colon) was > 100 µM and the TGI (T-47D breast) was > 100 µM. For the same compound, the TGI (TK-10 renal) was > 100 µM, the TGI (U251 CNS) was > 100 µM and the TGI (UACC-257 melanoma) was > 100 µM. The TGI (UACC-62 melanoma) was > 100 µM and the TGI (UO-31 renal) was > 100 µM.
CCC1CC(C)C(O)/C=C/C=C/CC(C)OC(=O)CC(O)C(OC)C1OC1OC(C)CC(O)(C(C)=O)C1O (stereo unspecified) was tested, and the TGI (786-0 renal) was > 100 µM, the TGI (A498 renal) was > 100 µM and the TGI (A549 NSCLC) was > 100 µM. The TGI (ACHN renal) was > 100 µM, the TGI (BT-549 breast) was > 100 µM and the TGI (CAKI-1 renal) was > 100 µM. For the same compound, the TGI (CCRF-CEM leukemia) was > 100 µM, the TGI (COLO 205 colon) was > 100 µM and the TGI (DU-145 prostate) was > 100 µM. The TGI (EKVX NSCLC) was > 100 µM, the TGI (HCC-2998 colon) was 66.5 µM and the TGI (HCT-116 colon) was > 100 µM. For the same compound, the TGI (HCT-15 colon) was > 100 µM, the TGI (HL-60(TB) leukemia) was 42.4 µM and the TGI (HOP-62 NSCLC) was > 100 µM. The TGI (HOP-92 NSCLC) was > 100 µM, the TGI (HS 578T breast) was > 100 µM and the TGI (HT29 colon) was > 100 µM. The TGI (IGROV1 ovarian) was > 100 µM, the TGI (KM12 colon) was > 100 µM and the TGI (LOX IMVI melanoma) was > 100 µM. The TGI (M14 melanoma) was > 100 µM, the TGI (MALME-3M melanoma) was > 100 µM and the TGI (MCF7 breast) was > 100 µM. For the same compound, the TGI (MDA-MB-231 breast) was 67.9 µM, the TGI (MDA-MB-435) was > 100 µM and the TGI (MDA-N) was > 100 µM. For the same compound, the TGI (MOLT-4 leukemia) was > 100 µM, the TGI (NCI-H226 lung) was > 100 µM and the TGI (NCI-H23 lung) was > 100 µM. For the same compound, the TGI (NCI-H522 lung) was 51.4 µM, the TGI (NCI/ADR-RES ovarian) was > 100 µM and the TGI (OVCAR-3 ovarian) was > 100 µM. The TGI (OVCAR-4 ovarian) was 42.8 µM, the TGI (OVCAR-5 ovarian) was > 100 µM and the TGI (OVCAR-8 ovarian) was > 100 µM. The TGI (PC-3 prostate) was > 100 µM, the TGI (RPMI-8226 leukemia) was > 100 µM and the TGI (RXF 393 renal) was > 100 µM. The TGI (SF-268 CNS) was > 100 µM, the TGI (SF-295 CNS) was > 100 µM and the TGI (SF-539 CNS) was > 100 µM. For the same compound, the TGI (SK-MEL-2 melanoma) was > 100 µM, the TGI (SK-MEL-28 melanoma) was > 100 µM and the TGI (SK-MEL-5 melanoma) was > 100 µM. The TGI (SK-OV-3 ovarian) was > 100 µM, the TGI (SN12C renal) was > 100 µM and the TGI (SNB-19 CNS) was 79.5 µM. For the same compound, the TGI (SNB-75 CNS) was > 100 µM, the TGI (SR leukemia) was 59.8 µM and the TGI (SW-620 colon) was > 100 µM. The TGI (T-47D breast) was > 100 µM, the TGI (TK-10 renal) was > 100 µM and the TGI (U251 CNS) was > 100 µM. For the same compound, the TGI (UACC-257 melanoma) was > 100 µM, the TGI (UACC-62 melanoma) was > 100 µM and the TGI (UO-31 renal) was > 100 µM.
For CC(/C=N/N(C)C1=NCCCN1)=N/N(C)C1=NCCCN1, the TGI (786-0 renal) was > 100 µM, the TGI (A498 renal) was > 100 µM and the TGI (A549 NSCLC) was > 100 µM. The TGI (ACHN renal) was > 100 µM, the TGI (BT-549 breast) was > 100 µM and the TGI (CAKI-1 renal) was > 100 µM. The TGI (CCRF-CEM leukemia) was > 100 µM, the TGI (COLO 205 colon) was > 100 µM and the TGI (DU-145 prostate) was > 100 µM. For the same compound, the TGI (EKVX NSCLC) was > 100 µM, the TGI (HCC-2998 colon) was > 100 µM and the TGI (HCT-116 colon) was > 100 µM. The TGI (HCT-15 colon) was > 100 µM, the TGI (HL-60(TB) leukemia) was > 100 µM and the TGI (HOP-62 NSCLC) was > 100 µM. For the same compound, the TGI (HOP-92 NSCLC) was > 100 µM, the TGI (HS 578T breast) was > 100 µM and the TGI (HT29 colon) was > 100 µM. For the same compound, the TGI (IGROV1 ovarian) was > 100 µM, the TGI (K-562 leukemia) was > 100 µM and the TGI (KM12 colon) was > 100 µM. The TGI (LOX IMVI melanoma) was > 100 µM, the TGI (MALME-3M melanoma) was > 100 µM and the TGI (MCF7 breast) was > 100 µM. For the same compound, the TGI (MDA-MB-231 breast) was > 100 µM, the TGI (MDA-MB-435) was > 100 µM and the TGI (MDA-N) was > 100 µM. For the same compound, the TGI (MOLT-4 leukemia) was > 100 µM, the TGI (NCI-H226 lung) was > 100 µM and the TGI (NCI-H23 lung) was > 100 µM. For the same compound, the TGI (NCI-H460 lung) was > 100 µM, the TGI (NCI-H522 lung) was > 100 µM and the TGI (NCI/ADR-RES ovarian) was > 100 µM. For the same compound, the TGI (OVCAR-3 ovarian) was > 100 µM, the TGI (OVCAR-4 ovarian) was > 100 µM and the TGI (OVCAR-5 ovarian) was > 100 µM. For the same compound, the TGI (OVCAR-8 ovarian) was > 100 µM, the TGI (PC-3 prostate) was > 100 µM and the TGI (RPMI-8226 leukemia) was > 100 µM. The TGI (RXF 393 renal) was > 100 µM, the TGI (SF-268 CNS) was > 100 µM and the TGI (SF-295 CNS) was > 100 µM. For the same compound, the TGI (SF-539 CNS) was > 100 µM, the TGI (SK-MEL-2 melanoma) was > 100 µM and the TGI (SK-MEL-28 melanoma) was > 100 µM. The TGI (SK-MEL-5 melanoma) was > 100 µM, the TGI (SK-OV-3 ovarian) was > 100 µM and the TGI (SN12C renal) was > 100 µM. The TGI (SNB-19 CNS) was > 100 µM, the TGI (SNB-75 CNS) was > 100 µM and the TGI (SR leukemia) was > 100 µM. The TGI (SW-620 colon) was > 100 µM, the TGI (T-47D breast) was > 100 µM and the TGI (TK-10 renal) was > 100 µM. The TGI (U251 CNS) was > 100 µM, the TGI (UACC-257 melanoma) was > 100 µM and the TGI (UACC-62 melanoma) was > 100 µM. The TGI (UO-31 renal) was > 100 µM.
